Test results taken from US12269859B2, “Synthetic immune receptors and methods of use thereof” (Angeles Therapeutics, Inc., priority 2016, dated 2025).

Experiments:
RAJI cells [1] = assay: RAJI xenograft model of lymphoma in NSG mice (survival); assay type: in vivo
Experimental: In vivo efficacy of SIR targeting CD19. […] SIR constructs and Gluc-PAC-G07 control construct encoding non-secretory form of Guassia Luciferase. Approximately half the cells were selected with puromycin while the other half was expanded without puromycin selection. NSG mice (Jackson Lab) were sub-lethally irradiated at a dose of 175 cGy. Approximately 24 hours post irradiation (day 2), mice were injected with 2.5×10^4 RAJI cells via tail-vein. […] Control mice (n=5) received no T cells or uninfected T cells. Mice were given human IL2 (400 IU intraperitoneally) on alternate days till the death of all mice in control group.
Approximately half the cells were selected with puromycin while the other half was expanded without puromycin selection. NSG mice (Jackson Lab) were sub-lethally irradiated at a dose of 175 cGy. Approximately 24 hours post irradiation (day 2), mice were injected with 2.5×10^4 RAJI cells via tail-vein. […] Control mice (n=5) received no T cells or uninfected T cells. Mice were given human IL2 (400 IU intraperitoneally) on alternate days till the death of all mice in control group.
SIR construct. NSG mice (Jackson Lab) were sub-lethally irradiated at a dose of 175 cGy. Approximately 24 hours post irradiation (day 2), mice were injected with 2.5×10^4 RAJI cells via tail-vein. […] SIR encoding lentivirus. Control mice (n=5) were injected with 5 million uninfected T cells or given no T cells.
SIR constructs. […] SIR were included as controls. NSG mice (n=5) were sub-lethally irradiated at a dose of 175 cGy. 24 hours post irradiation (day 2), mice were injected with 2.5×10^4 RAJI cells via tail-vein. […] Mice were given human IL2 (400 IU i.p.) on alternate days till the death of all mice in control group.
Human peripheral blood T cells isolated using CD3 magnetic beads were infected with lentiviruses expressing the indicated SIR constructs targeting Lym1 and Lym2. On day 1, the NSG mice were sub-lethally irradiated at a dose of 175 cGy. 24 hours post irradiation (day 2), mice were injected with 25×10^3 Raji cells intravenously. On day 3, the mice were treated intravenously with 10 million indicated CAR-T cells. Beginning on day 4, mice were injected with human IL-2 i.p. at a dose of 400 IU/mice every alternate day after the injection CAR-T cells till the death of all mice in control group.

293-Protein L-II cells = assay: Jurkat NFAT-GFP assay, coculture with 293-Protein L-II cells; assay type: cell-based, human; settings: co-culture with 293-Protein L-II cells approximately 18 hours
Text: Generation of human aAPC expressing Protein L on cell surface. Lentiviral chimeric antigen receptor (CAR) constructs were generated expressing different regions of Protein L in fusion with hinge and transmembrane regions of human CD8, 41BB costimulatory domain and CD3z chain. The nucleotide sequence of Protein L was codon optimized for optimal expression in human cells. It needs to be noted that the 41BB costimulatory domain and CD3z chain are not essential for the function of Protein L for the purpose of this invention. The vectors also carried N-terminal signal peptides derived from either human CD8 or IgH to allow cell surface transport of Protein L. The complete nucleic acid and amino acid sequence of the vectors are provided in SEQ ID NO: 888 and SEQ ID NO: 889.
Next, 293 cells were infected with a lentivirus vector encoding the Protein L-II construct (072716-K01) and polyclonal population of cells stably expressing Protein L were generated following selection with 750 ng/ml puromycin. […] SIR constructs. […] The use of Protein-L expressing aAPC is, however, not limited to above type of cells. These cells can serve as universal aAPC for any immune effector cell which carries an antigen binding domain derived from a suitable κ chain containing antibody that can bind to Protein L.

Protein L magnetic beads = assay: Jurkat NFAT-GFP assay, coculture with Protein L magnetic beads; assay type: cell-based, human; settings: coculture with Protein L beads for 18 hours
Text: Use of Protein L microbeads and Protein L expressing cells for stimulation of SIR and CAR expressing cells. A number of Human cell-based artificial antigen-presenting cells for cancer immunotherapy have been described. One approach for ex vivo expansion of CAR^+ and SIR^+ T cells involves the use of irradiated artificial antigen presenting cells (aAPC) expressing the targeted tumor associated antigen (TAA). However, this approach requires that the aAPC be engineered to express each individual TAA. To overcome this problem, a universal antigen presenting cell was developed. Protein L is an immunoglobulin (Ig) light chain-binding protein expressed by some strains of the anaerobic bacterial species Peptostreptococcus magnus. […] As an alternative to expressing individual TAAs on aAPC, experiments were performed to determine if Protein L could activate CAR^+ T and SIR^+ T cells independent of specificity. In the initial experiments, coculture of Jurkat-NFAT-GFP cells expressing different CAR and SIR constructs were tested to determine whether Protein L magnetic beads would lead to induction of GFP expression. Pierce Protein L magnetic beads (cat. #88849; concentration 10 mg/ml) were purchased from ThermoFisher and diluted 1:10 in PBS. Approximately 10 μl of diluted beads were added per well in a U-bottom 96-well plate. […] CAR were added to the wells and cocultured with the beads for 18 hours. […]

RAJI cells [2] = assay: Jurkat NFAT-GFP assay, coculture with RAJI cells; assay type: cell-based, human; settings: SIR/CAR-expressing Jurkat-NFAT-GFP cells cocultured with RAJI cells
Experimental: (B) Induction of NFAT promoter driven GFP expression. The control vector- and SIR-expressing Jurkat-NFAT-GFP cocultured for 4-24 hours with the target antigen-expressing cell line (described above) and their ability to bind to the target antigen is assayed by measuring induction of GFP expression using Flow Cytometry. Cellular supernatant is collected and assayed for the induction of cytokines (e.g., IL2).
Jurkat NFAT-GFP Assay For Synthetic Immune Receptors. The Jurkat-NFAT-GFP cells are engineered in such a way that the IL-2 promoter, which carries NFAT binding sites, is cloned upstream of the GFP gene. These cells have been used to study signaling via TCR and CAR. […]
Induction of GFP expression by coculturing of Jurkat-NFAT-GFP cells expressing different SIR constructs and the different target cells was studied essentially as described previously (Wu, Roybal, Puchner, Onuffer, & Lim, 2015). GFP expression was monitored by FACS analysis. […] The names of different SIRs, their SEQ ID NOs, component antigen binding domains and TCR chains can be determined by reference to Tables 7A-7H. […] The signs +/−, +, 2+ etc. after the name of the cell lines indicate the relative degree of positivity on the Jurkat-NFAT-GFP assay as measured by the % GFP positive cells after culture of the SIR expressing Jurkat-NFAT-GFP cells with that cell line.

`Cc1sc2c(c1C)C(c1ccc(Cl)cc1)=N[C@@H](CC(=O)OC(C)(C)C)c1nnc(C)n1-2` [JQ1(+), reference compound] was tested. Which “persistence of SIR-T cells and survival vs vehicle (in words)” value (RAJI cells [1]; 50 mg/kg twice daily intra-peritoneal, mice receiving SEQ ID NO: 1200 SIR-T cells) did it give?
Its value is “longer persistence of SIR-T cells and survive longer”.

`COc1ccc(-c2cc3c(C)nc(N)nc3n([C@H]3CC[C@H](OCCO)CC3)c2=O)cn1` [PF-04691502, reference compound] was tested. Which “median survival of mice given SIR-T cells expanded in presence vs absence of the inhibitor (in words)” value (RAJI cells [1]; SIR-T (SEQ ID NO:900) expanded with 0.10 μM to 0.5 μM) did it give?
The value was “higher”.

What does the source list for “CD8SP-FMC63(vL-vH)-Myc-BBz-T2A-PAC [SEQ ID NO:4501, reference compound]”?
induction of GFP expression (in words) (293-Protein L-II cells): strong induction of GFP expression; induction of GFP expression (in words) (Protein L magnetic beads): modest induction of GFP expression

How did the “induction of GFP expression / NFAT signaling (in words)” value (RAJI cells [2]) turn out when “pSBbi-puro-FMC63vL-V5-[TCRb-KACIAH]-F-P2A-FMC63vH-MYC-[TCRa-CSDVP]-F-F2A [SEQ ID NO:875]” was run?
Its value is “showed GFP induction”.
